The text below walks through data of patent US10857082B2, “Diarylalkanes as potent inhibitors of binuclear enzymes” (Unigen, Inc., priority 2004, dated 2020).

As a reminder, the IC50 is the concentration at which inhibition is half-maximal.

The test system of data set [1] is B16 F1 cells. The data set can be described thus: Inhibition of melanin production in B16 F1 cells without β-MSH induction (endogenous). It is filed as cell-based, mouse. The note with it: for Inhibition of melanin production relative to kojic acid, in words: B-16 cell line model, with and without β-MSH induction. From the text: (§1) Color development was visually monitored each morning.

In data set [2] the test system is B16 F1 cells. The data set can be described thus: Inhibition of melanin production in B16 F1 cells with β-MSH induction. It is filed as cell-based, mouse.
Text: as §1

Data set [3] deals with B16 F1 cells. The data set can be described thus: Cell toxicity assay, lactate dehydrogenase (LDH). The method, then:
The inhibition of melanin production was evaluated using two different assays. In the first assay, the inhibition of melanin production was evaluated without induction by β-MSH; whereas in the second assay the inhibition of melanin production was measured with β-MSH induction in cell culture medium. Briefly, B16 F1 cells (ATCC #CRL-622) were grown to confluency and then seeded at 40,000 cells per well. The cells were allowed to attach overnight at 37° C. in a humidified environment containing 5% CO2. On day 2, inhibitors were added to the cells at concentrations ranging from 0-1000 μM in triplicate and allowed to incubate for four days. The amount of β-MSH required to induce melanin formation was determined by the addition of hormone at concentrations ranging from 0-1000 nM in ten-fold increments. Once the proper β-MSH concentration was determined, cells were seeded as above, allowed to attach overnight and then co-incubated with tyrosinase inhibitors at concentrations ranging from 0-1000 μM. Color development was visually monitored each morning. After the development of color, 200 μl of cell supernatant was removed from each well and absorbance was measured at 450 nm. The resulting readings were used to determine the IC50 for melanin formation in the cell assay with and without β-MSH induction. For an initial comparison of cell toxicity, the 250 μM treated wells were used to perform a lactate dehydrogenase assay (LDH). LDH is a metabolic enzyme that leaks out of damaged or dead cells. The enzyme converts a chromophore in the presence of NAD^+ to yield a color change that can be monitored spectrophotometrically.
The compound treated wells were used to perform a lactate dehydrogenase assay (LDH). LDH is a metabolic enzyme that leaks out of damaged or dead cells. The enzyme converts a chromophore in the presence of NAD^+ to yield a color change that can be monitored spectrophotometrically. The cytotoxicity was examined at a concentration of 250 μM. […] It should be noted however, that cytotoxicity at only one concentration (250 μM) was tested.

For data set [4], the system named is tyrosinase. Put plainly: Enzyme inhibition kinetics with L-DOPA as substrate. It counts as biochemical, mushroom. The procedure:
A tyrosinase inhibition assay was carried out using the method reported by Jones et al. (2002) Pigment. Cell Res. 15:335. Using this method, the conversion of L-Dopa, a substrate of tyrosinase, into dopachrome is followed by monitoring absorption at 450 nm. Tyrosinase was prepared in 50 mM potassium phosphate buffer, pH 6.8 (assay buffer) at 2000 U/ml and stored at −20° C. in 1 ml aliquots prior to use. For use in assays, stock enzyme solutions were thawed and diluted to 200 U/ml with assay buffer. […] Samples were dissolved in 10% DMSO (0.5 ml) and diluted to 5 ml with assay buffer. […] Reaction volume was adjusted to 200 μl with assay buffer. Assays were performed in 96 well Falcon 3097 flat-bottom microtiter plates (Beckton Dickinson, N.J.). Appearance of dopachrome was measured with a WALLAC 1420 Multilable Counter (Turku, Finland). Average velocity was determined from linear enzyme rate as measured by change in absorbance (ΔA450) at 450 nm per minute. Percent inhibition of tyrosinase by test samples was determined by comparison of absorbance of samples versus control using formula (I): (Negative control absorption-sample absorption)/Negative control absorption×100 (1)

In data set [5] the target is DOPA oxidase activity. The settings on record: cited from earlier work.
Data set [6] has as its target mushroom tyrosinase (Agaricus bisporus, UniProt C7FF04). Put plainly: Tyrosinase inhibition assay (L-DOPA to dopachrome, absorbance at 450 nm). It counts as biochemical. The method, then: A tyrosinase inhibition assay was carried out using the method reported by Jones et al. (2002) Pigment. Cell Res. 15:335. Using this method, the conversion of L-Dopa, a substrate of tyrosinase, into dopachrome is followed by monitoring absorption at 450 nm. Tyrosinase was prepared in 50 mM potassium phosphate buffer, pH 6.8 (assay buffer) at 2000 U/ml and stored at −20° C. in 1 ml aliquots prior to use. For use in assays, stock enzyme solutions were thawed and diluted to 200 U/ml with assay buffer. A 2 mM working solution of substrate, L-DOPA, was prepared in assay buffer for each assay. Samples were dissolved in 10% DMSO (0.5 ml) and diluted to 5 ml with assay buffer. The reaction mixture consisted of 0.050 ml 2 mM L-DOPA, 0.050 ml 200 U/ml mushroom tyrosinase and 0.050 ml inhibitor. Reaction volume was adjusted to 200 μl with assay buffer. Assays were performed in 96 well Falcon 3097 flat-bottom microtiter plates (Beckton Dickinson, N.J.). Appearance of dopachrome was measured with a WALLAC 1420 Multilable Counter (Turku, Finland). Average velocity was determined from linear enzyme rate as measured by change in absorbance (ΔA450) at 450 nm per minute. Percent inhibition of tyrosinase by test samples was determined by comparison of absorbance of samples versus control using formula (I): (Negative control absorption-sample absorption)/Negative control absorption×100 (1)
Inhibition of tyrosinase by synthetic diarylalkanes was measured using the method described in Example 2. The IC50 value of each sample was calculated using kinetics software to verify that the reaction was linear at a specified time and concentration.

The target of data set [7] is human tyrosinase hydroxylase activity (Homo sapiens (Human), UniProt P14679). The settings on record: cited from earlier work.
Data set [8] concerns B16 F1 murine melanoma cells. The note with it: read-out: IC50, melanin biosynthesis; cited from earlier work.
The mark [9] stands for this setting: Mus musculus, B16 F1 cells, without β-MSH induction, read-out: IC50 for melanin formation, endogenous experiment.
Setting [10] is: Table 3, mouse B16 F1 cells, no β-MSH, read-out: Endogenous Melanin Inhibition IC50.
Where [11] appears, read: Mus musculus, B16 F1 cells, with β-MSH induction, read-out: IC50 for melanin formation, induced experiment.
The mark [12] stands for this setting: Table 3, mouse B16 F1 cells, β-MSH induction, read-out: MSH Induced Melanin Inhibition IC50.
[13] abbreviates: Table 2, synthetic diarylalkanes and/or diarylalkanols, read-out: Tyrosinase Inhibition (IC50).
Setting [14] is: read-out: IC50 for inhibition of tyrosinase.

Entries after “also recorded” stand apart in the source; their conditions may differ. Read-outs that look alike come from different tables or passages of the source.

Chain of mushroom tyrosinase (C7FF04 1-392 limits assumed): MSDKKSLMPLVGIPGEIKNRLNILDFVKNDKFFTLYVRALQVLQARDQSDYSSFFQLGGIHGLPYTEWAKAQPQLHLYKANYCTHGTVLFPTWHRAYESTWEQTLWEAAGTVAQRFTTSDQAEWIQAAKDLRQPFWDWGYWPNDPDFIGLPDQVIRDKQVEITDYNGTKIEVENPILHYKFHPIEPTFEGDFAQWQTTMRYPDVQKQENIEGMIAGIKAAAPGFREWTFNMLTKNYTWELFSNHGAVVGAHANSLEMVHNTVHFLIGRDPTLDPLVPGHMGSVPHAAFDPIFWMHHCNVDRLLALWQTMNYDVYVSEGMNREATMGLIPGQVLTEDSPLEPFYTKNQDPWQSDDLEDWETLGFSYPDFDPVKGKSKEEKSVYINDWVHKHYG
Chain of human tyrosinase hydroxylase activity (P14679 19-529): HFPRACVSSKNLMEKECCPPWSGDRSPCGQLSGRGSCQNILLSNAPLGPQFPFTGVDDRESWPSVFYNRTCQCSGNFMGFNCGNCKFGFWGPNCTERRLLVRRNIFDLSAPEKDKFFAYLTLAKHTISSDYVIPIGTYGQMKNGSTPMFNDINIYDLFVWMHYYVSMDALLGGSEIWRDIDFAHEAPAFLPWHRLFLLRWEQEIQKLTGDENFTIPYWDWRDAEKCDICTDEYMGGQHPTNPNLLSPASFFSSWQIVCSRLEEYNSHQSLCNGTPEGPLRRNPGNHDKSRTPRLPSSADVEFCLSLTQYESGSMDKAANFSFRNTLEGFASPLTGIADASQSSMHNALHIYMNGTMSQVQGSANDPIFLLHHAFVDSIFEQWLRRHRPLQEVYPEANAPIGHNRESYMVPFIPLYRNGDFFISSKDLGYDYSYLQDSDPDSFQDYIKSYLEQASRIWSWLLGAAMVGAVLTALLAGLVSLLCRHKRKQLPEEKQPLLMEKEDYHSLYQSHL

Consider `O=c1cc(CO)occ1O` [Kojic acid, kojic acid, reference compound], for which the half-maximal inhibitory concentration (IC50) in data set [1] (setting [9]) is 170 µM; in data set [1] (setting [10]) it was 170 µM; in data set [2] (setting [11]), 67 µM; in data set [2] (setting [12]) it was 67 µM; in data set [5], 410 µM. The “Cell Toxicity (LDH)” value in data set [3] (250 μM treated wells) turned out to be 0.260. Moreover, the “Time until tyrosinase activity was totally restored following incubation” value in data set [4] turned out to be 1 h.
Consider `COc1ccc(CCCc2ccc(O)cc2O)c(OC)c1C` [UP302a, 1-(3-methyl-2,4-dimethoxyphenyl)-3-(2′,4′-dihydroxyphenyl)-propane], for which, in data set [6], the “Tyrosinase inhibitory activity in words” value is recorded as “strong tyrosinase inhibitory activity”. For the same compound, the “Inhibition of melanin production relative to kojic acid, in words” value in data set [1] is “at least as good, if not better inhibitors than kojic acid”. In addition, the half-maximal inhibitory concentration (IC50) amounted to 28 µM in data set [1] (setting [9]), 28 µM in data set [1] (setting [10]), 40 µM in data set [2] (setting [11]) and 40 µM in data set [2] (setting [12]). In addition, in data set [2] (B-16 cell line), the “Inhibition of MSH induced melanin production relative to kojic acid” value is recorded as “significantly greater than kojic acid”. In addition, the “Cell Toxicity (LDH)” value in data set [3] (mouse, 4 days, 250 μM) was 0.265. The “Resumption of tyrosinase activity after incubation with inhibitor” value in data set [4] is on record as “not resumed for several days”. Further, the “Type of tyrosinase inhibition” value in data set [4] (inhibitor 0, 261, 522, 1044 nM, L-DOPA 0.75, 1.25, 2.5 mM) is given as “powerful competitive inhibitor”.
As to `OC[C@H]1O[C@@H](Oc2ccc(O)cc2)[C@H](O)[C@@H](O)[C@@H]1O` [arbutin], the concentration for half-maximal inhibition (IC50) in data set [5] was 3020 µM.
Take `COc1ccc(C(O)CCc2ncc(Cl)n2C)c(O)c1` (centres unmarked) [3-(5′-chloro-1′-methyl-1′-hydro-imidazol-2′-yl)-1-(2-hydroxy-4-methoxyphenyl)-1-propanol]: the half-inhibitory concentration (IC50) in data set [6] (setting [13]) and in data set [6] (setting [14]) was 225 µM throughout.
Consider `COc1ccc(O)c(C(O)CCc2ccc(OC)c(OC)c2)c1` (stereo not drawn) [l-(2-hydroxy-5-methoxyphenyl)-3-(3′,4′-dimethoxyphenyl)-1-propanol], for which the IC50 in data set [6] (setting [13]) was found to be 30 µM.
As for `COc1ccc(O)c(CCCc2ccc(O)cc2OC)c1` [UP288, 1-(2-methoxy-4-hydroxyphenyl)-3-(2′-hydroxy-5′-methoxyphenyl)-propane], the “Tyrosinase inhibitory activity in words” value in data set [6] is “as potent a tyrosinase inhibitor as kojic acid; also recorded: strong tyrosinase inhibition activity”. In addition, the “Inhibition of melanin production relative to kojic acid, in words” value in data set [1] was “comparable to kojic acid; also recorded: at least as good, if not better inhibitors than kojic acid”. Also, the results for the IC50 in data set [1] (setting [10]) and in data set [2] (setting [12]) were 108 µM and 105 µM, respectively. The “Cell Toxicity (LDH)” value in data set [3] (mouse, 4 days, 250 μM) was 0.315.
As for `COc1ccc(C(O)CCc2ccc3c(c2)OCCCCO3)c(O)c1` (centres unmarked) [1-(2-hydroxy-4-methoxyphenyl)-3-(2′,3′,4′,5′-tetrahydro-benzo(b)dioxoin-8′-yl)-1-propanol], the half-inhibitory concentration (IC50) in data set [6] (setting [13]) and in data set [6] (setting [14]) was 72 µM each time.
For the compound `COc1cc(CCC(O)c2ccc(O)cc2O)ccc1O` (centres unmarked) [1-(2,4-dihydroxyphenyl)-3-(3′-methoxy-4′-hydroxyphenyl)-1-propanol], the “Tyrosinase inhibitory activity in words” value in data set [6] is “quite strong tyrosinase inhibitory activity”.
With `CC(=O)Cc1cc(=O)c2c(C)cc(O)c([C@@H]3O[C@H](CO)[C@@H](O)[C@H](O)[C@H]3O)c2o1` [aloesin], the IC50 in data set [7] was 920 µM; in data set [5] it was 700 µM; in data set [8] it was 167 µM.
